The text below walks through data of a melting point compilation (Tetko et al.).

As to `Cc1coc(-c2cc(N)ccc2C)n1`, the melting point (as a rule, the temperature of the solid-liquid transition) was 52 to 54 °C.

For `O=C1CCN(C(=O)C2CC2)CC1`, the melting point is 72 to 74 °C.

Compound `c1ccc(-c2ccc3[nH]ccc3c2)cc1` gave a melting point of 74 to 76 °C.

`Cc1ccc(O)c(C(=O)N2CCSCC2)c1` had a melting point of 155 to 157 °C.

Compound `CN1CCN(c2ccc(C(=O)O)cc2[N+](=O)[O-])CC1` returned a melting point of 160 to 162 °C.

Regarding `CN(c1ccccc1)c1ccccc1C(=O)O`, the melting point is 105 to 107 °C.

For `O=C(O)c1nc(-c2cccs2)n(-c2ccccc2)n1`, the melting point was in the range of 199 to 201 °C.

Regarding `O=C1NC(=O)C2(CN3CCC2CC3)N1` (centres undefined), the melting point was 298 to 300 °C.

`O=C(O)CCNS(=O)(=O)c1ccccc1C(F)(F)F`: the melting point was in the range of 142 to 144 °C.

As for `O=c1[nH]c(CCl)nc2sc3c(c12)CCC3`, the melting point fell in the range of 230 to 238 °C.

As for `CN(CC(=O)O)C1CC1`, the melting point lay in the range of 101 to 103 °C.

`Cc1ccc(-n2nnc(C(=O)O)c2C(C)C)cc1` showed a melting point of 176 to 178 °C.

Compound `CCN(C(C)=O)c1nc(CCl)cs1` came in with a melting point of 82 to 84 °C.

Take `Cc1ccc(C2CCCCC2O)cc1` (centres undefined): the melting point lay within 72 to 74 °C.

As to `c1ccc(NCC2CCCCC2)nc1`, the melting point fell in the range of 91 to 93 °C.

On to `O=Cc1c(F)cccc1N1CCCC1`, for which the melting point lay in the range of 41 to 43 °C.

`OCc1ccc2c(c1)NCC2`: the melting point lay within 49 to 51 °C.

Regarding `Cn1c(=O)c2c(S)nc(C(C)(C)C)nc2n(C)c1=O`, the melting point lay within 143 to 145 °C.

`COC(=O)c1cc(C(C)(C)C)n[nH]1` showed a melting point of 172 to 174 °C.

`CCOC(=O)Cn1[nH]cc(C#N)c1=N` registered a melting point of 121 to 123 °C.

For `Cc1cc(Br)ccc1NS(C)(=O)=O`, the melting point fell in the range of 144 to 146 °C.

Compound `CCCN(CCC)C(=O)c1ccc(N)cc1` had a melting point of 81 to 83 °C.

`COc1cc(OC)c2cc(CCCN)[nH]c2c1` displayed a melting point of 113 to 115 °C.

In turn, `CC(O)CNc1nc2ccccc2[nH]1` (centres undefined) yielded a melting point of 186 to 188 °C.

`O=C(Nc1ccc(S(=O)(=O)Cl)cc1[N+](=O)[O-])C(F)(F)F`: the melting point was in the range of 91 to 93 °C.

In the case of `CS(=O)(=O)c1ccc(-c2nnc(N)o2)cc1`, the melting point lay within 297 to 299 °C.

`O=C1CCCc2nc(-c3ccccc3F)sc21` gave a melting point of 153 to 155 °C.

`O=C(O)c1ccc(NC(=O)c2cc(Cl)cc(Cl)c2)cc1` had a melting point of 305 to 307 °C.

In turn, `O=C1CCC(C(F)(F)F)CN1` (centres undefined) returned a melting point of 141 to 143 °C.

Turning to `O=[N+]([O-])c1cccc(Sc2ccccc2)c1`, the melting point lay within 38 to 40 °C.

For `Cc1c(C(=O)O)nnn1-c1cccc(Br)c1`, the melting point fell in the range of 184 to 186 °C.

With `NS(=O)(=O)c1nnc[nH]1`, the melting point was in the range of 224 to 226 °C.

`NC(=S)Nc1ccc2c(c1)OCCO2` yielded a melting point of 211 to 213 °C.

With `NC(=S)c1cc2ccccc2o1`, the melting point was 146 to 148 °C.

For `O=C(O)CNC(=O)c1ccoc1`, the melting point is 165 to 167 °C.

For the compound `CCOc1ccc(O)c(C=O)c1`, the melting point is 49 to 51 °C.

`CC(Oc1ccc(C#N)cc1)C(=O)NN` (centres undefined) had a melting point of 129 to 131 °C.

In turn, `O=S(=O)(c1ccc(Cl)nc1)N1CCOCC1` returned a melting point of 143 to 145 °C.

`O=C(O)c1c(C(F)(F)F)n[nH]c1C(F)(F)F` had a melting point of 255 to 257 °C.

The compound `NC(=O)c1cc(C(F)(F)F)ccc1N1CCCC1` yielded a melting point of 207 to 209 °C.

`Nc1ccc(CC(F)(F)F)cc1` yielded a melting point of 46 to 48 °C.

`Nc1cc2c(cc1[N+](=O)[O-])OCCO2` showed a melting point of 150 to 152 °C.

On to `Nc1ccc(CN2CCN(Cc3ccccc3)CC2)cc1`, for which the melting point lay in the range of 96 to 98 °C.

Regarding `CN(C)S(=O)(=O)c1cccc(-c2nnc(S)n2N)c1`, the melting point was in the range of 200 to 202 °C.

Take `Cc1ccc(CNC(=O)C2CCNCC2)cc1`: the melting point lay within 157 to 159 °C.

Take `Nc1cccc(NC(=O)c2cccc(C(F)(F)F)c2)c1`: the melting point was 134 to 136 °C.

In the case of `CC(C)(C)c1ccc(-c2ccc(C(=O)O)o2)cc1`, the melting point is 213 to 215 °C.

In turn, `CCOc1ccc(C2(C)NC(=O)NC2=O)cc1` (centres undefined) came in with a melting point of 190 to 192 °C.

The compound `CC(C)c1cc(N)no1` showed a melting point of 64 to 66 °C.

The compound `Cc1cc(N)n(CCC#N)n1` returned a melting point of 104 to 106 °C.

On to `CCC(=O)c1ccc(Cl)c(Cl)c1O`, for which the melting point lay in the range of 98 to 100 °C.

Compound `O=C(O)C1CC1c1ccccc1OC(F)(F)F` (centres undefined) had a melting point of 94 to 96 °C.

In the case of `O=C1CCS(=O)(=O)c2ccc(Br)cc21`, the melting point lay within 146 to 148 °C.

In turn, `O=C1C(Br)CCN1c1ccc(C(F)(F)F)cc1` (centres undefined) displayed a melting point of 63 to 65 °C.

For the compound `NC(=S)N1CCCC1`, the melting point was 140 to 142 °C.

As to `NC(=O)c1c(N)sc2c1CCC2`, the melting point lay in the range of 158 to 160 °C.

For `O=S(=O)(Cl)c1ccc(OCC(F)F)cc1`, the melting point was in the range of 42 to 44 °C.

Take `CC(C)COc1ccc(-c2nn(-c3ccccc3)cc2C=O)cc1`: the melting point was in the range of 100 to 102 °C.

In turn, `N#CC=C(Cl)c1cccc(OC(F)F)c1` registered a melting point of 45 to 47 °C.

On to `Cc1noc2nc(-c3cccc(Cl)c3)cc(C(=O)O)c12`, for which the melting point fell in the range of 239 to 241 °C.

For `CCc1ccc(C(=O)c2ccc([N+](=O)[O-])cc2)o1`, the melting point is 76 to 78 °C.

Compound `CCOC(=O)Nc1ccc(C(=O)O)cc1` yielded a melting point of 170 to 172 °C.

As to `O=C1CNCCN1Cc1ccc(Cl)cc1`, the melting point is 83 to 85 °C.

In turn, `Cc1ccc2[nH]c(=O)n3nc(C4CC4)nc3c2c1` gave a melting point of 260 to 262 °C.

For `COC(=O)COc1ccc(C(C)=O)cc1`, the melting point lay in the range of 85 to 87 °C.

The compound `Cc1cc(C(=O)CC#N)c(C)n1CC(F)(F)F` registered a melting point of 150 to 152 °C.

Compound `COC(=O)CCS(=O)(=O)c1ccc(Br)cc1` yielded a melting point of 75 to 77 °C.

With `N#Cc1c(S)nc(CCc2ccccc2)c2c1CCCC2`, the melting point is 224 to 226 °C.

Turning to `Cc1cccc(NC(=O)C2CCNCC2)n1`, the melting point lay in the range of 175 to 177 °C.

Compound `COCC(N)=O` had a melting point of 86 to 88 °C.

Compound `CCCNC(=S)NN` yielded a melting point of 61 to 63 °C.

In turn, `c1ccc(-c2cc[nH]c2)nc1` had a melting point of 126 to 128 °C.

`CCC1C(=O)NC(=S)N(c2ccc(Cl)cc2)C1=O` (centres undefined) had a melting point of 148 to 150 °C.

As to `CC(NC(=O)OC(C)(C)C)c1ccc(-c2cccc(C#N)c2)cc1` (centres undefined), the melting point fell in the range of 103 to 105 °C.

`O=C(O)C1CCCN(C(=O)c2c[nH]c3ccccc23)C1` (centres undefined) displayed a melting point of 231 to 233 °C.

Take `CCCOc1ccc(CNC(=O)CCl)cc1`: the melting point lay in the range of 109 to 111 °C.

As for `C=CC(=O)NCc1ccc(C(=O)O)cc1`, the melting point fell in the range of 197 to 199 °C.

Take `CC(=O)c1c[nH]c2cc(Br)ccc12`: the melting point lay in the range of 239 to 241 °C.

Regarding `COC(=O)CCc1nnc(N)s1`, the melting point is 135 to 137 °C.

The compound `O=C(O)c1ccc(Cl)c(NS(=O)(=O)c2ccc(F)cc2)c1` displayed a melting point of 211 to 213 °C.

For `COc1ccc(CNC(=O)C(C)Cl)cc1OC` (centres undefined), the melting point lay in the range of 97 to 99 °C.

With `COc1cc(C(=O)O)ccc1OCc1c(C)noc1C`, the melting point was in the range of 216 to 218 °C.

On to `CC(Sc1ccnc2cc(Cl)ccc12)C(=O)O` (centres undefined), for which the melting point was 201 to 203 °C.

Take `O=C1CCCN1c1ccc(Cl)c([N+](=O)[O-])c1`: the melting point was in the range of 137 to 139 °C.

For `CC(C)(C)OC(=O)NCC(N)C1CCCCC1` (centres undefined), the melting point was 47 to 49 °C.

For `Cc1ccc(C(C)C)c(OC(C)C(=O)O)c1` (centres undefined), the melting point was 61 to 63 °C.

For `Cc1sc2nc(S)n(C)c(=O)c2c1C`, the melting point is 288 to 290 °C.

Consider `Cc1nc2ccc(C#N)cc2s1`, for which the melting point was 129 to 131 °C.

Regarding `CCOC(=O)c1c(-c2ccc(C)o2)csc1N`, the melting point lay in the range of 93 to 95 °C.

The compound `Nc1cc(=O)[nH][nH]1` displayed a melting point of 204 to 206 °C.

In turn, `O=C(O)Cc1cc(Cl)ccc1Br` displayed a melting point of 101 to 103 °C.

The compound `COc1nc(Cl)ncc1Br` showed a melting point of 76 to 78 °C.

On to `Nc1nc(-c2cccs2)c(-c2cccs2)s1`, for which the melting point lay within 139 to 141 °C.

`c1cncc(-c2ncc[nH]2)c1` yielded a melting point of 208 to 210 °C.

As for `O=Cc1cc(Br)c(OCc2ccccc2)c(Br)c1`, the melting point lay in the range of 78 to 80 °C.

Compound `CCn1cc(S(=O)(=O)Cl)nc1C` had a melting point of 65 to 67 °C.

Turning to `FC(F)c1nc2c(Cl)cccc2[nH]1`, the melting point lay in the range of 125 to 127 °C.

In turn, `O=C1C(=O)N(Cc2ccc(Br)cc2)c2ccccc21` yielded a melting point of 182 to 184 °C.

Regarding `Sc1nnnc2ccccc12`, the melting point lay in the range of 183 to 185 °C.

Take `Cc1c(C(=O)C(=O)O)sc2ccccc12`: the melting point lay in the range of 156 to 158 °C.

Compound `CC1Cc2ccccc2N1S(=O)(=O)c1cccc(C(=O)O)c1` (centres undefined) came in with a melting point of 170 to 172 °C.

Regarding `CCCCNc1nc2ccc(C)cc2s1`, the melting point is 70 to 72 °C.

As for `COc1cc(Cl)c(Cl)cc1C(=O)O`, the melting point lay in the range of 148 to 150 °C.

`CC(=O)c1ccoc1` showed a melting point of 52 to 54 °C.

In turn, `O=C(O)c1ccc(S(=O)(=O)Nc2ccccc2)cc1` came in with a melting point of 225 to 228 °C.

The compound `O=C(O)C(c1ccccc1)N1CCc2ccccc21` (centres undefined) had a melting point of 181 to 183 °C.

As to `Cc1cccc2c(CC(=O)O)c(-c3ccccc3)[nH]c12`, the melting point is 159 to 161 °C.

In the case of `CCN(CC)S(=O)(=O)c1ccc(OC)c(NC(=O)CCl)c1`, the melting point was 100 to 102 °C.

As for `COc1ccc(CC(=O)O)c(Cl)c1`, the melting point lay within 118 to 120 °C.

Regarding `COC(=O)c1cc2c(OC(F)F)cccc2[nH]1`, the melting point was in the range of 144 to 146 °C.

In turn, `O=c1oc2ccccc2nc1NO` yielded a melting point of 254 to 256 °C.

As to `CC(C)(C)C(=O)Nc1nc(CC(=O)O)cs1`, the melting point fell in the range of 222 to 224 °C.

`O=c1[nH]cnc2cc(F)c([N+](=O)[O-])cc12` showed a melting point of 292 to 294 °C.

For the compound `Cc1cc(CNCc2cc(C)c(O)c(C)c2)cc(C)c1O`, the melting point is 249 to 251 °C.

On to `O=C(CBr)c1ccc(S(=O)(=O)N2CCCCC2)cc1`, for which the melting point was 108 to 110 °C.

Consider `CCOc1cc(C=O)ccc1OCc1c(F)cccc1Cl`, for which the melting point was in the range of 111 to 113 °C.

On to `Nc1nc(-c2cc3ccccc3o2)cs1`, for which the melting point is 243 to 245 °C.

`O=C1CCC(Cc2ccc(Cl)cc2)C(=O)N1` (centres undefined) yielded a melting point of 150 to 152 °C.

As to `CC(C)(C)[Si](C)(C)Oc1cc(C(=O)O)cc2ccccc12`, the melting point was 153 to 155 °C.
